Results reported in patent US20180142211A1, “METHODS OF MESENCHYMAL STEM CELL MOBILIZATION AND EXPANSION” (Biokine Therapeutics Ltd, priority 2015, published 2018).
“Also recorded” adds a separate entry of the source.

Key:
MSCs = conditions: without cytokines such as PDGF, VEGF, IGF-1 or SCF; cited from earlier work
CXCR4 [1] = biological target: T1, CXCR4 (Homo sapiens, UniProt P61073); conditions: cited from earlier work
Target sequence in this assay (P61073 whole entry, species assumed): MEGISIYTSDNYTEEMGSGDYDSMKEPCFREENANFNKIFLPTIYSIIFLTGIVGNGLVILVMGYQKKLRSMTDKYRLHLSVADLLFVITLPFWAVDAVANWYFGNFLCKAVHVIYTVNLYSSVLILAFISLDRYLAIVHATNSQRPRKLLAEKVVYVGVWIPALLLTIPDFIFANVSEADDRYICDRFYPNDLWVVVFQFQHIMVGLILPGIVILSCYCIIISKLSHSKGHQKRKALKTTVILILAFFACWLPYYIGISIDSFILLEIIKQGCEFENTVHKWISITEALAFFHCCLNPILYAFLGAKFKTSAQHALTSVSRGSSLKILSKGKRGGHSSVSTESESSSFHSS

[2] = human, in vivo
Method: To test the effect of BL-8040 (SEQ ID NO: 1) on mesenchymal stem cell mobilization a two-part study was performed. The first part of the study was randomized, double-blind, placebo-controlled dose escalation study. In each cohort, six volunteers were administrated twice (altogether) on day one and two with BL-8040 (First cohort 0.5 mg/kg, Second cohort 0.75 mg/kg and Third 1.0 mg/kg) and 2 were administrated with placebo. […] BL-8040's safety, tolerability and pharmacokinetic profile were also evaluated on this part.

HSC (CD34+ cells) = test: Phase I study: mobilization of HSC (CD34+ cells); format: in vivo, human
Text: (§1) Mean CD34+ count at baseline was 5.81/μL.

[3] = tested on: T cells, B cells and NK cells; test: Phase I study: FACS analysis of lymphocyte mobilization; format: in vivo, human
Text: as §1

[4] = tested on: long term repopulating cells; conditions: mice, single injection; cited from earlier work
white blood cells (WBC) = test: Phase I study: WBC mobilization to peripheral blood; format: in vivo, human; conditions: 4 hours post dose, baseline 6.31
Text: as §1

CD34 (+) cells = conditions: MM patients, combined with G-CSF, single administration; cited from earlier work
CXCR4 [5] = biological target: T1, CXCR4; test: Phase I study: receptor occupancy and pharmacodynamic effect; format: in vivo; design: endogenous in cells; host or cells: peripheral blood cells (CD34+, lymphocyte, mononuclear populations) of healthy volunteers; conditions: post dosing
Text: as §1
Target sequence in this assay (P61073 whole entry): as the sequence (P61073 whole entry, species assumed) above

[6] = tested on: Mesenchymal Stem Cells (MSCs); test: Phase I study: MSC mobilization, MesenCult assay; format: in vivo, human; conditions: for MSC mobilization into peripheral blood, single agent: MesenCult
Method: To evaluate the number of MSCs in the blood, a MesenCult assay was used at different time points following BL-8040 administration (0.75 mg/Kg FIGS. 1-2, or 1 mg/Kg FIGS. 3-4)) to healthy subjects-as described above.
White blood cells (WBCs) obtained from 100 μl blood, were plated in MesenCult medium (2 ml).
The number of MSCs colonies and MS cells were visually scored 15 days later, using a light microscope, and the frequency of MSC colonies and MSCs was calculated.

HPC colony forming cells = test: Phase I study: HPC colony forming cell mobilization; format: in vivo, human; conditions: 4-8 hr post injection
Text: as §1

## c1cc(CN2CCCNCCNCCCNCC2)ccc1CN1CCCNCCNCCCNCC1 [AMD3100]
MSCs
  MSC mobilization by the agent alone: not sufficient to mobilize MSCs

## 4F-benzoyl-Arg-Arg-Nal-Cys-Tyr-Cit-Lys-DLys-Pro-Tyr-Arg-Cit-Cys-Arg-NH2 [BL-8040]
CXCR4 [1]
  off-rate of the receptor: slow off-rate
CXCR4 [1]; high affinity, read-out: affinity of binding to CXCR4
  Kd: 1 to 2 nM
[2]
  appearance in plasma: rapid
  half-life: short
HSC (CD34+ cells); 0.5 mg/kg, 4 hour post the second dose, placebo 9
  mean CD34 count: 38 µL⁻¹
HSC (CD34+ cells); 0.5 mg/kg, four hours post dose, baseline 5.81/μL, placebo 8
  mean CD34 count: 37 µL⁻¹
HSC (CD34+ cells); 0.75 mg/kg, 4 hour post the second dose, placebo 9
  mean CD34 count: 46 µL⁻¹
HSC (CD34+ cells); 0.75 mg/kg, four hours post dose, baseline 5.81/μL, placebo 8
  mean CD34 count: 31 µL⁻¹
HSC (CD34+ cells); 1 mg/kg, 4 hour post the second dose, placebo 9
  mean CD34 count: 58 µL⁻¹
HSC (CD34+ cells); 1 mg/kg, 4 hours post single administration, all subjects
  CD34+ count in all subjects: more than 20 CD34+/μL
HSC (CD34+ cells); 1 mg/kg, four hours post dose, baseline 5.81/μL, placebo 8
  mean CD34 count: 35 µL⁻¹
HSC (CD34+ cells); across all doses tested
  mobilization of HSC (CD34+ cells): Dramatic mobilization
[3]
  mobilization of T cells, B cells and NK cells: substantial mobilization
[4]
  mobilization of long term repopulating cells for transplantation: sufficient to mobilize enough long term repopulating cells for transplantation
White blood cells (WBC)
  mean WBC count: 2.968e+10 L⁻¹
CD34 (+) cells
  stem cell mobilization (CD34 (+) cell collection in one aphaeresis procedure): efficient stem cell mobilizer
CXCR4 [5]
  duration of receptor occupancy and pharmacodynamics effect: ≥ 24 h
[6]; 4-8 hr post injection
  mobilization of Mesenchymal Stem Cells (MSCs): rapid mobilization of MSCs
[6]; Cohort 2 (0.75 mg/Kg), 15 days culture (FIGS. 1-2), 0.75 mg/kg
  MSC mobilization into peripheral blood, single agent: mobilizes mesenchymal stem cells (MSCs) into peripheral blood (PB); also recorded: mobilizes MSCs into the PB
[6]; Cohort 3 (1 mg/Kg), 15 days culture (FIGS. 3-4), 1 mg/kg
  MSC mobilization into peripheral blood, single agent: mobilizes mesenchymal stem cells (MSCs) into peripheral blood (PB); also recorded: mobilizes MSCs into the PB
HPC colony forming cells
  mobilization of HPC colony forming cells: rapid mobilization
